Test results: patent publication US9533973B2, “Allosteric modulators of 5-hydroxytryptamine 2C receptor (5-HT2CR)” (THE BOARD OF REGENTS OF THE UNIVERSITY OF TEXAS SYSTEM, priority 2011, dated 2017)

Columns and labels:
rats = assay: Spontaneous locomotor activity (open field horizontal ambulation); type: in vivo, rat
Description: Locomotor activity was monitored and quantified under low light conditions using a modified open field activity system (San Diego Instruments, San Diego, Calif.) according to previous publications with minor modifications (Cunningham et al., 2011, Neuropharmacology 61:513-523). Clear Plexiglass chambers (40×40×40 cm) were surrounded by a 4×4 photobeam matrix positioned 4 cm from the chamber floor. Consecutive photobeam breaks within the 16×16 cm of the activity monitor were recorded as central ambulation. Peripheral ambulation was counted as consecutive beam breaks in the surrounding perimeter. Central and peripheral ambulations were summed to provide a measure of total horizontal ambulation. […] The effects of CYD-1-78-2 and CYD-1-79 alone or in combination with the selective 5-HT2CR agonist WAY163909 were established in a within-subjects design. To control for order effects, drug doses and vehicles were administered in random sequence to individual rats across sessions such that all rats received all treatment combinations and were tested every three days. Rats received vehicle (saline, 1 mL/kg, i.p.), CYD-1-78-2 (0.5, 1, or 3 mg/kg, i.p.) or the combination of CYD-1-78-2 (0.5 mg/kg, i.p.) plus WAY163909 (1 mg/kg, i.p.) immediately prior to placement in activity monitors on each test day; locomotor activity was assessed for 90 min. In a separate cohort of rats, rats received vehicle (saline, 1 mL/kg, i.p.), CYD-1-79 (0.5, 1, or 5 mg/kg, i.p.) or the combination of CYD-1-79 (0.5 mg/kg, i.p.) plus WAY163909 (1 mg/kg, i.p.) immediately prior to placement in activity monitors on each test day; locomotor activity was assessed for 90 min. The combination of CYD-1-78-2 plus WAY163909 or CYD-1-79 plus WAY163909 was administered simultaneously.
Locomotor activity data are presented as mean total horizontal ambulation (±SEM) over the entire 90-min session or within 5 min time bins across the session. A two-way ANOVA for repeated measures for the factors of treatment and time was conducted. The main effect of treatment on total horizontal ambulation was analyzed with a repeated measures, one-way analysis of variance using the GLM procedure (SAS for Windows). Subsequent a priori comparisons between means for total horizontal ambulation were made using the Dunnett's procedure, with vehicle (saline) as the comparator.

5-HT2CR = target: T1, 5-HT2CR (Homo sapiens, UniProt P28335); design: host or cells: stably transfected HEK293 cells (Im et al., Mol. Pharmacol. 64, 78-84, 2003); settings: Im et al., 2003, cited from earlier work
T1 sequence (P28335 33-458): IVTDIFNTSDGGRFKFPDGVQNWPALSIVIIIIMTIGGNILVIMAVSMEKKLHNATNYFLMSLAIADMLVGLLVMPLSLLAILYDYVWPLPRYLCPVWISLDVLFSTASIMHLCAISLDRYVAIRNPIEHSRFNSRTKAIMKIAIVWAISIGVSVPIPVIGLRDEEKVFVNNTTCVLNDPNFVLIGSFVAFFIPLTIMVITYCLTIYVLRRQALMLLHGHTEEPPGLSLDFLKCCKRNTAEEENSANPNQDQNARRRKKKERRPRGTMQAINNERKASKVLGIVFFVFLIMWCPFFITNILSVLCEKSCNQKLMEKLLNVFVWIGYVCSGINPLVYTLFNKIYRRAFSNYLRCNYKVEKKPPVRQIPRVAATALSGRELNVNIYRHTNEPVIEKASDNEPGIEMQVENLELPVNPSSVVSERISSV

CCCCCCCCCCC[C@@H]1CCN[C@H](C(=O)N[C@@H]([C@H]2O[C@H](SC)[C@H](O)[C@@H](O)[C@H]2O)[C@H](C)Cl)C1.Cl [CYD-1-78-2]
effect on spontaneous locomotor activity (rats; 0.5 mg/kg alone): ineffective
total horizontal ambulation versus saline, combination with WAY163909 (rats; 0.5 mg/kg i.p. plus WAY163909 1 mg/kg i.p., 90-min session, p<0.05): significantly reduces
horizontal ambulation versus saline in 5-min intervals, combination with WAY163909 (rats; 0.5 mg/kg i.p. plus WAY163909 1 mg/kg i.p., CYD-1-78-2: interval 1 and 2, CYD-1-79: interval 2, p<0.05): significantly reduces
horizontal ambulation versus saline in 5-min intervals (rats; 1 mg/kg i.p., at interval 4, 5 and 6, p<0.05): significantly reduces
total horizontal ambulation summed across the 90-min test session versus saline (rats; 1 mg/kg i.p., p<0.05): significantly reduces
horizontal ambulation versus saline in 5-min intervals (rats; 3 mg/kg i.p., at interval 1, 2, 3 and 11, p<0.05): significantly reduces
total horizontal ambulation summed across the 90-min test session versus saline (rats; 3 mg/kg i.p., p<0.05): significantly reduces
total ambulations (rats; 1 and 3 mg/kg, i.p., unhabituated animals, 90 minutes): dose-dependently decreases
selective 5-HT2CR agonist-mediated suppression of spontaneous locomotor activity (rats; with WAY163909): augment
intrinsic activation of GTPγS binding and IP3 release/[3H]IP accumulation in the absence of 5-HT (5-HT2CR; HEK293 cell line (~45 pmol/mg protein)): detected intrinsic activation
concentrations giving positive allosteric modulation in the presence of 5-HT (5-HT2CR): less than 10 μM
modulation at higher concentrations in the presence of 5-HT (5-HT2CR; concentrations above 10 μM): negative allosteric modulation
